According to patent publication US20230139171A1 (SITA Information Networking Computing UK Limited, priority 2019, published 2023):

What was measured:
Assay type in all cases: cell-based
human TLR7 = target: T1, human TLR7 (Homo sapiens, UniProt Q9NYK1); experiment: TLR7 inhibition reporter assay (HEK-Blue cells, SEAP reporter, gardiquimod stimulation); settings: HEK-Blue cells overexpressing human TLR7, SEAP reporter, gardiquimod 7.5 μM; read-out: TLR7 IC50
T1 construct: host or cells: HEK-Blue cells
T1 sequence (Q9NYK1 27-1049): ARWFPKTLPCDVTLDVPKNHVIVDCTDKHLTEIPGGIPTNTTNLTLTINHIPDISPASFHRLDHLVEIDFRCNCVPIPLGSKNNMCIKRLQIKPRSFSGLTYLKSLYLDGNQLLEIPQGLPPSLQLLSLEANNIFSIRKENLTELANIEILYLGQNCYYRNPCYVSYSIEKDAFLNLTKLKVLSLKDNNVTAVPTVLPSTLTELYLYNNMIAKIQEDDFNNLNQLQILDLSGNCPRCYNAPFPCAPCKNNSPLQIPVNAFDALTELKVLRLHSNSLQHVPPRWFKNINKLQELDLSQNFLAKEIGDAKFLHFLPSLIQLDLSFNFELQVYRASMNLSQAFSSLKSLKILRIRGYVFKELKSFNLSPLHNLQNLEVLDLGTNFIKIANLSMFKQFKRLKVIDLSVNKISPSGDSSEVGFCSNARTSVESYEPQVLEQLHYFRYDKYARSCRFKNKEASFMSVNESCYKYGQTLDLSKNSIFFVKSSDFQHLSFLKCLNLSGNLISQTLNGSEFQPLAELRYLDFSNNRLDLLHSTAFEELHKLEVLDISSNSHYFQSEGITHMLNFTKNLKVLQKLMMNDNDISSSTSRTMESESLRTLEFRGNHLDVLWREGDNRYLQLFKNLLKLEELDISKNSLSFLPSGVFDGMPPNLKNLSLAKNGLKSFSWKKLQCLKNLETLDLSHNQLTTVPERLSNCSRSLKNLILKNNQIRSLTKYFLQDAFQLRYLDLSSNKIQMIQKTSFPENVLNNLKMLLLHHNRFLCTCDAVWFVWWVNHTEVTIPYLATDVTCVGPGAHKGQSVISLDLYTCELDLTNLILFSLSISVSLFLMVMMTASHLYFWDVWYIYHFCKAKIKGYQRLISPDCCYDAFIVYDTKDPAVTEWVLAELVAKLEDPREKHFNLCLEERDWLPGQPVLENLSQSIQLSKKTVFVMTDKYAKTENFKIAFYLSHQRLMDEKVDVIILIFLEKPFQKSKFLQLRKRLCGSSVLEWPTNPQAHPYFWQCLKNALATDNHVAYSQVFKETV
Procedure, shortened: (§1)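 Screening used HEK-Blue cells overexpressing one human TLR (7, 8 or 9) and an IFN-β minimal promoter–NF-κB/AP-1 SEAP construct. Stimulation lasted 22 h at 37 °C with receptor-specific agonist: gardiquimod, R848 or ODN2006 at 7.5 μM, 15.9 μM and 5 nM.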

human TLR8 = target: T2, human TLR8 (Homo sapiens, UniProt Q9NR97); experiment: TLR8 inhibition reporter assay (HEK-Blue cells, SEAP reporter, R848 stimulation); settings: HEK-Blue cells overexpressing human TLR8, SEAP reporter, R848 15.9 μM; read-out: TLR8 IC50
T2 construct: host or cells: HEK-Blue cells
T2 sequence (Q9NR97 27-1041): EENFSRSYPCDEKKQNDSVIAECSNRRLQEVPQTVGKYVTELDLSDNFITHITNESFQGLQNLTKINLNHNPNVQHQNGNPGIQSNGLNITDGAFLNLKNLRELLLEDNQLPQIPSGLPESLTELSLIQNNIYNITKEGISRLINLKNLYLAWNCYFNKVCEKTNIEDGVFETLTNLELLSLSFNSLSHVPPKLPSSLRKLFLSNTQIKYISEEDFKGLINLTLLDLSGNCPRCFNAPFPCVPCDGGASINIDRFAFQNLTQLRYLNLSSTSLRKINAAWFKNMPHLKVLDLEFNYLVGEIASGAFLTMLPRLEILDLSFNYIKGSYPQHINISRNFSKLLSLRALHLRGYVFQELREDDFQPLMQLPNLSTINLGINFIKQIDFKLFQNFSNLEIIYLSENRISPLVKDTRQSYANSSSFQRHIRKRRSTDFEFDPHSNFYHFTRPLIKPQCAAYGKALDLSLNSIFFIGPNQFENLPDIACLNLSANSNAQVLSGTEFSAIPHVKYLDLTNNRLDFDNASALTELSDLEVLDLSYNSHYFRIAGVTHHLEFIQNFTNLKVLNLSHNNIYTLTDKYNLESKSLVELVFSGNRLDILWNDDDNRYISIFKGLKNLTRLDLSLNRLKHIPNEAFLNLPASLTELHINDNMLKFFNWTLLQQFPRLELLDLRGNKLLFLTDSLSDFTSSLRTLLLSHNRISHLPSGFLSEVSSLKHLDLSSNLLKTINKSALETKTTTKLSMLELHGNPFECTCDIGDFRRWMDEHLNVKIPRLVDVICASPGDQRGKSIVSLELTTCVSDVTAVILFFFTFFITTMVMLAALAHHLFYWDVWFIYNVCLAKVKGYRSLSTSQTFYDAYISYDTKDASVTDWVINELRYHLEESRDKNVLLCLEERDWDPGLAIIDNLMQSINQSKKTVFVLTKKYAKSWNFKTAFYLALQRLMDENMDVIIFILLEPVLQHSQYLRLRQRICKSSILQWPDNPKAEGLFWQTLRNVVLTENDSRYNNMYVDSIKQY
Procedure, shortened: as §1

human TLR9 = target: T3, human TLR9 (Homo sapiens, UniProt Q9NR96); experiment: TLR9 inhibition reporter assay (HEK-Blue cells, SEAP reporter, ODN2006 stimulation); settings: HEK-Blue cells overexpressing human TLR9, SEAP reporter, ODN2006 5 nM
T3 construct: host or cells: HEK-Blue cells
T3 sequence (Q9NR96 26-1032): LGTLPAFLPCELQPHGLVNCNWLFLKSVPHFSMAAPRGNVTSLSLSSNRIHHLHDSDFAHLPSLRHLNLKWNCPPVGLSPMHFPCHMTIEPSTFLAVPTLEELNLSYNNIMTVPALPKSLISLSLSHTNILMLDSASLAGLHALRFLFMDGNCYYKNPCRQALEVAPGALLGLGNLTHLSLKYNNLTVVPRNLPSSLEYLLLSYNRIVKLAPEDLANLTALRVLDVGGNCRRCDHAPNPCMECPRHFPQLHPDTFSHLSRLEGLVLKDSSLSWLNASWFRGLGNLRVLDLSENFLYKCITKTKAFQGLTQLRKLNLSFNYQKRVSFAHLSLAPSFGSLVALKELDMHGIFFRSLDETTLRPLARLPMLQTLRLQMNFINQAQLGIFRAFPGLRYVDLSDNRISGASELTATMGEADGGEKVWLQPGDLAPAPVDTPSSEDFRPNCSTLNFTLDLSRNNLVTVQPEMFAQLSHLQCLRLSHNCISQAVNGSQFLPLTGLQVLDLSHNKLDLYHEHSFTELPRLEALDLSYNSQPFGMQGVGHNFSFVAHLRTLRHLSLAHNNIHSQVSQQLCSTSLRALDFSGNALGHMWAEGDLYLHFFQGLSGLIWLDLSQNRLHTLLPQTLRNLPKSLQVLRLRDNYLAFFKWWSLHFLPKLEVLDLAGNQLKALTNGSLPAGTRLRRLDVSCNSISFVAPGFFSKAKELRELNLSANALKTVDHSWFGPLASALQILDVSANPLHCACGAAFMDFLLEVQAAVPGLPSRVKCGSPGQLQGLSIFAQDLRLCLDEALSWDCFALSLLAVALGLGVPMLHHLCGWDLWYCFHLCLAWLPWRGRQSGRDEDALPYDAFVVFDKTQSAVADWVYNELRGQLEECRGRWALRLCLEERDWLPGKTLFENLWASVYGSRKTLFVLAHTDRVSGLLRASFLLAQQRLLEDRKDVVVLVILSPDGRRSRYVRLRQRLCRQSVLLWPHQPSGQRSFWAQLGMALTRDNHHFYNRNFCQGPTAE
Procedure, shortened: as §1

Row | IC50 (human TLR7) | IC50 (human TLR8) | IC50 (human TLR9) | SMILES
1 | 414 nM | 60.3 nM | 14.7 µM | Cc1c(-c2[nH]c3sc(N4C[C@@H](C)N(C5CCOCC5)C[C@@H]4C)nc3c2C(C)C)cn2ncnc2c1C [Example 329, 2-((2S,5R)-2,5-dimethyl-4-(tetrahydro-2H-pyran-4-yl)piperazin-1-yl)-5-(7,8-dimethyl-[1,2,4]triazolo[1,5-a]pyridin-6-yl)-6-isopropyl-4H-pyrrolo[3,2-d]thiazole]
2 | 12.4 nM | 1.38 nM | 6.44 µM | Cc1c(-c2[nH]c3sc(C(=O)NCCN4CCCC4)nc3c2C(C)C)cn2ncnc2c1C [Example 370, 5-(7,8-dimethyl-[1,2,4]triazolo[1,5-a]pyridin-6-yl)-6-isopropyl-N-(2-(pyrrolidin-1-yl)ethyl)-4H-pyrrolo[3,2-d]thiazole-2-carboxamide]
3 | 0.81 nM | 0.58 nM | 3.5 µM | COc1cc(-c2[nH]c3sc(C4CCC(N5CC6(COC6)C5)CC4)nc3c2C(C)C)cn2ncnc12 (single isomer, unassigned) [Example 68, 6-(4-(6-isopropyl-5-(8-methoxy-[1,2,4]triazolo[1,5-a]pyridin-6-yl)-4H-pyrrolo[3,2-d]thiazol-2-yl)cyclohexyl)-2-oxa-6-azaspiro[3.3]heptane]
4 | 1.37 nM | 0.39 nM | 10.3 µM | Cc1c(-c2[nH]c3sc(C4CCC(NCC5(S(C)(=O)=O)CC5)CC4)nc3c2C(C)C)cn2ncnc2c1C (single isomer, unassigned) [Example 214, 4-(5-(7,8-dimethyl-[1,2,4]triazolo[1,5-a]pyridin-6-yl)-6-isopropyl-4H-pyrrolo[3,2-d]thiazol-2-yl)-N-((1-(methylsulfonyl)cyclopropyl)methyl) cyclohexan-1-amine]
5 | 4.17 nM | 35.6 nM | 6.32 µM | COc1cc(-c2[nH]c3sc(C4CCC(N5CC6(COC6)C5)CC4)nc3c2C(C)C)cn2ncnc12 (single isomer, unassigned) [Example 69, 6-(4-(6-isopropyl-5-(8-methoxy-[1,2,4]triazolo[1,5-a]pyridin-6-yl)-4H-pyrrolo[3,2-d]thiazol-2-yl)cyclohexyl)-2-oxa-6-azaspiro[3.3]heptane]
6 | 3.59 nM | 16.9 nM | 5.71 µM | COc1cc(-c2[nH]c3sc(C4CCC(NC5COC5)CC4)nc3c2C(C)C)cn2ncnc12 (single isomer, unassigned) [Example 66, N-(4-(6-isopropyl-5-(8-methoxy-[1,2,4]triazolo[1,5-a]pyridin-6-yl)-4H-pyrrolo[3,2-d]thiazol-2-yl)cyclohexyl)oxetan-3-amine]
7 | 15.2 nM | 0.52 nM | 14.2 µM | Cc1c(-c2[nH]c3sc(N4CCN(C(C)C)CC4)nc3c2C(C)C)cn2ncnc2c1C [Example 288, 5-(7,8-dimethyl-[1,2,4]triazolo[1,5-a]pyridin-6-yl)-6-isopropyl-2-(4-isopropylpiperazin-1-yl)-4H-pyrrolo[3,2-d]thiazole]
8 | 8.33 nM | 12 nM | 14 µM | CCN(C)C1CCC(c2nc3c(C(C)C)c(-c4cn(C)c(=O)c(C)c4C)[nH]c3s2)CC1 (single isomer, unassigned) [Example 248, 5-(2-(4-(ethyl(methyl)amino)cyclohexyl)-6-isopropyl-4H-pyrrolo[3,2-d]thiazol-5-yl)-1,3,4-trimethylpyridin-2(1H)-one]
9 | 44 nM | 17.5 nM | 25.3 µM | COC(C)(C)CNC1CCC(c2nc3c(C(C)C)c(-c4cn(C)c(=O)c(C)c4C)[nH]c3s2)CC1 (single isomer, unassigned) [Example 244, 5-(6-isopropyl-2-(4-((2-methoxy-2-methylpropyl)amino)cyclohexyl)-4H-pyrrolo[3,2-d]thiazol-5-yl)-1,3,4-trimethylpyridin-2(1H)-one]
10 | 7.37 nM | 34.8 nM | 1.71 µM | COc1cc(-c2[nH]c3sc(C4CCC(NC5CCN(C(C)C)CC5)CC4)nc3c2C(C)C)cn2ncnc12 (single isomer, unassigned) [Example 167, 1-isopropyl-N-(4-(6-isopropyl-5-(8-methoxy-[1,2,4]triazolo[1,5-a]pyridin-6-yl)-4H-pyrrolo[3,2-d]thiazol-2-yl)cyclohexyl)piperidin-4-amine]
11 | 9.92 nM | 36 nM | 5.66 µM | CC(C)c1c(-c2cn(C)c3ncccc23)[nH]c2sc(C3CCC(N4CC5(COC5)C4)CC3)nc12 (single isomer, unassigned) [Example 181, 6-(4-(6-isopropyl-5-(1-methyl-1H-pyrrolo[2,3-b]pyridin-3-yl)-4H-pyrrolo[3,2-d]thiazol-2-yl)cyclohexyl)-2-oxa-6-azaspiro[3.3]heptane]
